Assays:
Experiment in all cases: relative viability (nuclei count vs DMSO), 5 days (fraction); higher = more cells survive
201T = test system: 201T
Procedure, shortened: (§1)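 Relative viability is defined as nuclei in treated wells over nuclei in vehicle wells. Duplicate plates were run and medians reported. Lung cancer cell lines in 1536-well plates were dosed by pin tool one day after seeding, with one drug or with a fixed anchor-drug dose plus five library-drug doses (not always all listed) in √10 steps, and nuclei were counted after 5 days.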

A-427 = test system: A-427
Procedure, shortened: as §1

COR-L23 = test system: COR-L23
Procedure, shortened: as §1

H3255 = test system: H3255
Procedure, shortened: as §1

HCC-44 = test system: HCC-44
Procedure, shortened: as §1

LCLC-103H = test system: LCLC-103H
Procedure, shortened: as §1

LCLC-97TM1 = test system: LCLC-97TM1
Procedure, shortened: as §1

LK-2 = test system: LK-2
Procedure, shortened: as §1

LU99A = test system: LU99A
Procedure, shortened: as §1

NCI-H1563 = test system: NCI-H1563
Procedure, shortened: as §1

NCI-H1793 = test system: NCI-H1793
Procedure, shortened: as §1

NCI-H1944 = test system: NCI-H1944
Procedure, shortened: as §1

NCI-H2347 = test system: NCI-H2347
Procedure, shortened: as §1

NCI-H23 = test system: NCI-H23
Procedure, shortened: as §1

NCI-H460 = test system: NCI-H460
Procedure, shortened: as §1

NCI-H650 = test system: NCI-H650
Procedure, shortened: as §1

NCI-H727 = test system: NCI-H727
Procedure, shortened: as §1

NCI-H838 = test system: NCI-H838
Procedure, shortened: as §1

PC-14 = test system: PC-14
Procedure, shortened: as §1

PC-3 [JPC-3] = test system: PC-3 [JPC-3]
Procedure, shortened: as §1

SW 1573 = test system: SW 1573
Procedure, shortened: as §1

For `C=C1C(=O)O[C@@H](CCCCCCCC)[C@@H]1C(=O)O` [C-75] + Cc1nc(NC(=O)N2CCC[C@H]2C(N)=O)sc1-c1ccnc(C(C)(C)C(F)(F)F)c1 [Alpelisib] (partner 2 µM), the relative viability (201T; first compound 0.08 µM) was 0.981, the relative viability (201T; first compound 0.253 µM) was 1.08 and the relative viability (201T; first compound 0.8 µM) was 1.02. It also gave a relative viability (201T; first compound 2.53 µM) of 0.975, a relative viability (201T; first compound 8 µM) of 1.07 and a relative viability (A-427; first compound 0.08 µM) of 1.06. The relative viability (A-427; first compound 0.253 µM) was 1.08, the relative viability (A-427; first compound 0.8 µM) was 1.14 and the relative viability (A-427; first compound 2.53 µM) was 0.95. It also gave a relative viability (A-427; first compound 8 µM) of 1.03, a relative viability (COR-L23; first compound 0.08 µM) of 0.762 and a relative viability (COR-L23; first compound 0.253 µM) of 1.02. It also gave a relative viability (COR-L23; first compound 0.8 µM) of 0.753, a relative viability (COR-L23; first compound 2.53 µM) of 0.741 and a relative viability (COR-L23; first compound 8 µM) of 0.723. It also gave a relative viability (H3255; first compound 0.08 µM) of 0.615, a relative viability (H3255; first compound 0.253 µM) of 0.789 and a relative viability (H3255; first compound 0.8 µM) of 0.638. The relative viability (H3255; first compound 2.53 µM) was 0.828, the relative viability (H3255; first compound 8 µM) was 0.78 and the relative viability (HCC-44; first compound 0.08 µM) was 0.742. The relative viability (HCC-44; first compound 0.253 µM) was 0.674, the relative viability (HCC-44; first compound 0.8 µM) was 0.719 and the relative viability (HCC-44; first compound 2.53 µM) was 0.614. It also gave a relative viability (HCC-44; first compound 8 µM) of 0.719, a relative viability (LCLC-103H; first compound 0.08 µM) of 0.986 and a relative viability (LCLC-103H; first compound 0.253 µM) of 0.94. For the same compound, the relative viability (LCLC-103H; first compound 0.8 µM) was 1.01, the relative viability (LCLC-103H; first compound 2.53 µM) was 0.89 and the relative viability (LCLC-103H; first compound 8 µM) was 0.908. It also gave a relative viability (LCLC-97TM1; first compound 0.08 µM) of 0.286, a relative viability (LCLC-97TM1; first compound 0.253 µM) of 0.376 and a relative viability (LCLC-97TM1; first compound 0.8 µM) of 0.225. It also gave a relative viability (LCLC-97TM1; first compound 2.53 µM) of 0.251, a relative viability (LCLC-97TM1; first compound 8 µM) of 0.271 and a relative viability (LK-2; first compound 0.08 µM) of 0.921. It also gave a relative viability (LK-2; first compound 0.253 µM) of 0.771, a relative viability (LK-2; first compound 0.8 µM) of 1.13 and a relative viability (LK-2; first compound 2.53 µM) of 1.28. The relative viability (LK-2; first compound 8 µM) was 1, the relative viability (LU99A; first compound 0.08 µM) was 0.537 and the relative viability (LU99A; first compound 0.253 µM) was 0.547. It also gave a relative viability (LU99A; first compound 0.8 µM) of 0.516, a relative viability (LU99A; first compound 2.53 µM) of 0.483 and a relative viability (LU99A; first compound 8 µM) of 0.389. For the same compound, the relative viability (NCI-H1563; first compound 0.08 µM) was 0.939, the relative viability (NCI-H1563; first compound 0.253 µM) was 0.969 and the relative viability (NCI-H1563; first compound 0.8 µM) was 0.886. It also gave a relative viability (NCI-H1563; first compound 2.53 µM) of 0.974, a relative viability (NCI-H1563; first compound 8 µM) of 0.901 and a relative viability (NCI-H1793; first compound 0.08 µM) of 0.72. For the same compound, the relative viability (NCI-H1793; first compound 0.253 µM) was 0.723, the relative viability (NCI-H1793; first compound 0.8 µM) was 0.585 and the relative viability (NCI-H1793; first compound 2.53 µM) was 0.708. It also gave a relative viability (NCI-H1793; first compound 8 µM) of 0.816, a relative viability (NCI-H1944; first compound 0.08 µM) of 0.824 and a relative viability (NCI-H1944; first compound 0.253 µM) of 0.655. For the same compound, the relative viability (NCI-H1944; first compound 0.8 µM) was 0.916, the relative viability (NCI-H1944; first compound 8 µM) was 0.818 and the relative viability (NCI-H2347; first compound 0.08 µM) was 1.01. For the same compound, the relative viability (NCI-H2347; first compound 0.253 µM) was 0.987, the relative viability (NCI-H2347; first compound 0.8 µM) was 1.12 and the relative viability (NCI-H2347; first compound 2.53 µM) was 0.956. The relative viability (NCI-H2347; first compound 8 µM) was 1.09, the relative viability (NCI-H23; first compound 0.08 µM) was 0.546 and the relative viability (NCI-H23; first compound 0.253 µM) was 0.818. It also gave a relative viability (NCI-H23; first compound 0.8 µM) of 0.565, a relative viability (NCI-H23; first compound 2.53 µM) of 0.618 and a relative viability (NCI-H23; first compound 8 µM) of 0.505. The relative viability (NCI-H460; first compound 0.08 µM) was 0.517, the relative viability (NCI-H460; first compound 0.253 µM) was 0.485 and the relative viability (NCI-H460; first compound 0.8 µM) was 0.475. The relative viability (NCI-H460; first compound 8 µM) was 0.374, the relative viability (NCI-H650; first compound 0.08 µM) was 1.1 and the relative viability (NCI-H650; first compound 0.253 µM) was 0.874. For the same compound, the relative viability (NCI-H650; first compound 0.8 µM) was 1.08, the relative viability (NCI-H650; first compound 2.53 µM) was 1.06 and the relative viability (NCI-H650; first compound 8 µM) was 1.04. For the same compound, the relative viability (NCI-H727; first compound 0.08 µM) was 0.467, the relative viability (NCI-H727; first compound 0.253 µM) was 0.76 and the relative viability (NCI-H727; first compound 0.8 µM) was 0.616. For the same compound, the relative viability (NCI-H727; first compound 2.53 µM) was 0.579, the relative viability (NCI-H727; first compound 8 µM) was 0.688 and the relative viability (NCI-H838; first compound 0.08 µM) was 0.949. It also gave a relative viability (NCI-H838; first compound 0.253 µM) of 0.675, a relative viability (NCI-H838; first compound 0.8 µM) of 0.928 and a relative viability (NCI-H838; first compound 2.53 µM) of 0.79. The relative viability (NCI-H838; first compound 8 µM) was 0.919, the relative viability (PC-14; first compound 0.08 µM) was 0.897 and the relative viability (PC-14; first compound 0.253 µM) was 1.02. The relative viability (PC-14; first compound 0.8 µM) was 0.904, the relative viability (PC-14; first compound 2.53 µM) was 0.901 and the relative viability (PC-14; first compound 8 µM) was 1.01. It also gave a relative viability (PC-3 [JPC-3]; first compound 0.08 µM) of 1.02, a relative viability (PC-3 [JPC-3]; first compound 0.253 µM) of 0.981 and a relative viability (PC-3 [JPC-3]; first compound 0.8 µM) of 1.07. The relative viability (PC-3 [JPC-3]; first compound 2.53 µM) was 1.09, the relative viability (PC-3 [JPC-3]; first compound 8 µM) was 1.12 and the relative viability (SW 1573; first compound 0.08 µM) was 0.711. The relative viability (SW 1573; first compound 0.253 µM) was 0.7, the relative viability (SW 1573; first compound 0.8 µM) was 0.638 and the relative viability (SW 1573; first compound 2.53 µM) was 0.683. It also gave a relative viability (SW 1573; first compound 8 µM) of 0.655.

From the supplement of paper PMC10307832
